≈ marks a conversion by molar mass, not a printed value.
Tests used:
[1] = system: A.calcoaceticus IFO 13006; assay: In vitro antibacterial activity (MIC), Japan Society of Chemotherapy Standard; assay type: cell-based; details: Acinetobacter calcoaceticus, IFO13006; inoculated cells 10⁶ cells/ml
Procedure: (§1) The in vitro antibacterial activity (minimum inhibitory concentration, MIC, µg/ml) of the test compounds was determined according to Japan Society of Chemotherapy Standard [Chemotherapy, vol. 29, pp 76-79 (1981)].
(§2) Inoculated cells were 10⁶ cells/ml and the strain with * was incubated in a medium supplemented with 10% horse blood. The mark "1)" means quinolone resistant MRSA and "2)" means quinolone resistant bacteria.

[2] = system: Citrobacter freundii IFO 12681; assay: as above; assay type: cell-based; details: IFO12681, inoculated cells 10⁶ cells/ml
Procedure: as §1, §2

[3] = system: E. avium EAY-30; assay: as above; assay type: cell-based; details: Enterococcus avium, EAY30, inoculated cells 10⁶ cells/ml
Procedure: as §1, §2

[4] = system: E. faecium EFMY-28; assay: as above; assay type: cell-based; details: Enterococcus faecium, EFMY28; inoculated cells 10⁶ cells/ml
Procedure: as §1, §2

[5] = system: Enterobacter cloacae IFO 12937; assay: as above; assay type: cell-based; details: IFO12937, inoculated cells 10⁶ cells/ml
Procedure: as §1, §2

[6] = system: Enterococcus faecalis LS-101; assay: as above; assay type: cell-based; details: LS101, inoculated cells 10⁶ cells/ml
Procedure: as §1, §2

[7] = system: Escherichia coli NIHJ JC-2; assay: as above; assay type: cell-based; details: NIHJJC2, inoculated cells 10⁶ cells/ml
Procedure: as §1, §2

[8] = system: K.pneumoniae DT-S; assay: as above; assay type: cell-based; details: Klebsiella pneumoniae; inoculated cells 10⁶ cells/ml
Procedure: as §1, §2

[9] = system: L.monocytogenes VTU-206; assay: as above; assay type: cell-based; details: Listeria monocytogenes, VTU206; inoculated cells 10⁶ cells/ml; medium supplemented with 10% horse blood
Procedure: as §1, §2

[10] = system: M.catarrhalis ATCC 25238; assay: as above; assay type: cell-based; details: Moraxella catarrhalis, ATCC25238; inoculated cells 10⁶ cells/ml; medium supplemented with 10% horse blood
Procedure: as §1, §2

[11] = system: P. mirabilis IFO 3849; assay: as above; assay type: cell-based; details: Proteus mirabilis, IFO3849; inoculated cells 10⁶ cells/ml
Procedure: as §1, §2

[12] = system: P.aeruginosa U-31; assay: as above; assay type: cell-based; details: Pseudomonas aeruginosa, U31; inoculated cells 10⁶ cells/ml
Procedure: as §1, §2

[13] = system: Proteus vulgaris IFO 3988; assay: as above; assay type: cell-based; details: IFO3988, inoculated cells 10⁶ cells/ml
Procedure: as §1, §2

[14] = system: S. aureus No.88; assay: as above; assay type: cell-based; details: Staphylococcus aureus; quinolone resistant MRSA; inoculated cells 10⁶ cells/ml
Procedure: as §1, §2

[15] = system: S. epidermidis ATCC 12228; assay: as above; assay type: cell-based; details: Staphylococcus epidermidis, ATCC12228; inoculated cells 10⁶ cells/ml
Procedure: as §1, §2

[16] = system: S. pneumoniae Type-III; assay: as above; assay type: cell-based; details: Streptococcus pneumoniae; inoculated cells 10⁶ cells/ml; medium supplemented with 10% horse blood
Procedure: as §1, §2

[17] = system: Serratia marcescens IFO 12648; assay: as above; assay type: cell-based; details: IFO12648, inoculated cells 10⁶ cells/ml
Procedure: as §1, §2

[18] = system: Shigella flexneri EW-10; assay: as above; assay type: cell-based; details: EW10, inoculated cells 10⁶ cells/ml
Procedure: as §1, §2

[19] = system: Staphylococcus aureus FDA 209P; assay: as above; assay type: cell-based; details: FDA209P, inoculated cells 10⁶ cells/ml
Procedure: as §1, §2

[20] = system: Streptococcus pyogenes C-203; assay: as above; assay type: cell-based; details: C203, inoculated cells 10⁶ cells/ml, medium supplemented with 10% horse blood
Procedure: as §1, §2

[21] = system: Bacteroides fragilis GAI 5560; assay: Antibacterial effect against specific bacteria (MIC); assay type: cell-based; details: GAI5560, same manner as Experimental Example 1
Procedure: as §1
(§3) In the same manner as in Experimental Example 1, the antibacterial effect against specific bacteria such as Chlamydia, Mycoplasma and acid-fast bacteria and anaerobic bacteria was determined.

[22] = system: Chlamydia trachomatis D/UW-3Cx; assay: as above; assay type: cell-based; details: same manner as Experimental Example 1
Procedure: as §1, §3

[23] = system: Mycobacterium smegmatis IFO 13167; assay: as above; assay type: cell-based; details: Mycolicibacterium smegmatis, IFO13167; same manner as Experimental Example 1
Procedure: as §1, §3

[24] = system: Mycoplasma pneumoniae ATCC 29343; assay: as above; assay type: cell-based; details: ATCC29343, same manner as Experimental Example 1
Procedure: as §1, §3

[25] = system: Ureaplasma urealyticum ATCC 27618; assay: as above; assay type: cell-based; details: ATCC27618, same manner as Experimental Example 1
Procedure: as §1, §3

[26] = system: E. coli KC-14; assay: MIC of the infectious bacteria used for experimental infection; assay type: cell-based; details: Escherichia coli, KC14; infectious strain of the mouse protection test
Procedure: as §1
(§4) Experimental infection was caused by intraperitoneal inoculation of respective bacteria to male mice. One hour after the inoculation, a test compound was orally administered to the mice. The therapeutic effect of each test compound was evaluated by reference to the 50% effective dose (ED₅₀) which was based on the survival ratio at 7 days after the administration according to the probit method [Proc. Soc. Exp. Med., Vol. 57, p 261-264 (1944)]. The minimum inhibitory concentration (MIC) of the infectious bacteria used was also determined. […]

[27] = system: S. aureus MRSA Y-238; assay: as above; assay type: cell-based; details: Staphylococcus aureus, infectious strain of the mouse protection test
Procedure: as §1, §4

[28] = system: S. aureus Smith; assay: as above; assay type: cell-based; details: Staphylococcus aureus; infectious strain of the mouse protection test
Procedure: as §1, §4

[29] = system: E. coli KC-14; assay: Protection of mice from experimental infection; assay type: in vivo; details: Table 3-1: male mice; intraperitoneal inoculation 5.0×10⁶ cells/mouse (744×LD₅₀); oral administration one hour after inoculation; survival ratio at 7 days
Procedure: as §4

[30] = system: S. aureus MRSA Y-238; assay: Protection of mice from experimental infection; assay type: in vivo; details: Table 3-1: male mice; intraperitoneal inoculation 7.5×10⁶ cells/mouse (185×LD₅₀); oral administration one hour after inoculation; survival ratio at 7 days
Procedure: as §4

[31] = system: S. aureus Smith; assay: Protection of mice from experimental infection; assay type: in vivo; details: male mice; intraperitoneal inoculation 2.8×10⁶ cells/mouse (123×LD₅₀); oral administration one hour after inoculation; survival ratio at 7 days, probit method
Procedure: as §4

[32] = system: male ICR mice; assay: Preliminary micronucleus test; assay type: in vivo; details: for Emergence of micronucleus in polychromatic cells compared with the control group: after 24 hours, Example 5: in the dose of 1,000 mg/kg or above
Procedure: A preliminary micronucleus test was performed by oral administration to male ICR mice. […]

Row | SMILES | MIC [1] | MIC [2] | MIC [3] | MIC [4] | MIC [5] | MIC [6] | MIC [7] | MIC [8] | MIC [9] | MIC [10] | MIC [11] | MIC [12] | MIC [13] | MIC [14] | MIC [15] | MIC [16] | MIC [17] | MIC [18] | MIC [19] | MIC [20] | further results
1 | COc1c(N2CCC(N)(CF)C2)c(F)cc2c(=O)c(C(=O)O)cn(C3CC3)c12 (stereo not shown) [Example 1, 7-(3-amino-3-fluoromethylpyrrolidin-1-yl)-1-cyclopropyl-6-fluoro-1,4-dihydro-8-methoxy-4-oxo-3-quinolinecarboxylic acid] | 0.05 µg/mL (≈ 0.127 µM) | 0.05 µg/mL (≈ 0.127 µM) | 0.1 µg/mL (≈ 0.254 µM) | 0.2 µg/mL (≈ 0.508 µM) | 0.2 µg/mL (≈ 0.508 µM) | 0.012 µg/mL (≈ 0.0305 µM) | 0.025 µg/mL (≈ 0.0636 µM) | 0.025 µg/mL (≈ 0.0636 µM) | 0.1 µg/mL (≈ 0.254 µM) | 0.012 µg/mL (≈ 0.0305 µM) | 0.39 µg/mL (≈ 0.991 µM) | 0.39 µg/mL (≈ 0.991 µM) | 0.2 µg/mL (≈ 0.508 µM) | 0.39 µg/mL (≈ 0.991 µM) | 0.012 µg/mL (≈ 0.0305 µM) | 0.012 µg/mL (≈ 0.0305 µM) | 0.2 µg/mL (≈ 0.508 µM) | ≤ 0.006 µg/mL | ≤ 0.006 µg/mL | 0.05 µg/mL (≈ 0.127 µM) | –
2 | COc1c(N2CC[C@@](N)(CF)C2)c(F)cc2c(=O)c(C(=O)O)cn(C3CC3)c12 [Example 6, (S)-7-(3-amino-3-fluoromethylpyrrolidin-1-yl)-1-cyclopropyl-6-fluoro-1,4-dihydro-8-methoxy-4-oxo-3-quinoline carboxylic acid] | 0.025 µg/mL (≈ 0.0636 µM) | 0.1 µg/mL (≈ 0.254 µM) | 0.1 µg/mL (≈ 0.254 µM) | 0.2 µg/mL (≈ 0.508 µM) | 0.2 µg/mL (≈ 0.508 µM) | 0.012 µg/mL (≈ 0.0305 µM) | 0.025 µg/mL (≈ 0.0636 µM) | 0.05 µg/mL (≈ 0.127 µM) | 0.1 µg/mL (≈ 0.254 µM) | 0.012 µg/mL (≈ 0.0305 µM) | 0.2 µg/mL (≈ 0.508 µM) | 0.39 µg/mL (≈ 0.991 µM) | 0.39 µg/mL (≈ 0.991 µM) | 0.39 µg/mL (≈ 0.991 µM) | ≤ 0.006 µg/mL | 0.025 µg/mL (≈ 0.0636 µM) | 0.2 µg/mL (≈ 0.508 µM) | 0.012 µg/mL (≈ 0.0305 µM) | ≤ 0.006 µg/mL | 0.05 µg/mL (≈ 0.127 µM) | MIC [21]: 0.05 µg/mL (≈ 0.127 µM); MIC [22]: 0.012 µg/mL (≈ 0.0305 µM); MIC [23]: 0.1 µg/mL (≈ 0.254 µM); MIC [24]: 0.025 µg/mL (≈ 0.0636 µM); MIC [25]: 0.1 µg/mL (≈ 0.254 µM); MIC [26]: 0.012 µg/mL; MIC [27]: 0.39 µg/mL; MIC [28]: ≤ 0.006 µg/mL; ED₅₀ (mg/mouse) (95% confidence limit) [29]: 0.011(0.008-0.015) mg/mouse; ED₅₀ (mg/mouse) (95% confidence limit) [30]: 1.54(1.103-2.151) mg/mouse; ED₅₀ (mg/mouse) (95% confidence limit) [31]: 0.036(0.025-0.052) mg/mouse; Emergence of micronucleus in polychromatic cells compared with the control group ([32]; oral): did not show significant difference in emergence of micronucleus; Emergence of micronucleus (%) ([32]; oral, dose 500 mg/kg): 0.16±0.16%; Emergence of micronucleus (%) ([32]; oral, dose 1000 mg/kg): 0.16±0.11%; Emergence of micronucleus (%) ([32]; oral, dose 2000 mg/kg): 0.26±0.04%
3 | COc1c(N2CC[C@](N)(CF)C2)c(F)cc2c(=O)c(C(=O)O)cn(C3CC3)c12 [Example 5, (R)-7-(3-amino-3-fluoromethylpyrrolidin-1-yl)-1-cyclopropyl-6-fluoro-1,4-dihydro-8-methoxy-4-oxo-3-quinolinecarboxylic acid] | 0.025 µg/mL (≈ 0.0636 µM) | 0.05 µg/mL (≈ 0.127 µM) | 0.1 µg/mL (≈ 0.254 µM) | 0.1 µg/mL (≈ 0.254 µM) | 0.2 µg/mL (≈ 0.508 µM) | 0.012 µg/mL (≈ 0.0305 µM) | 0.025 µg/mL (≈ 0.0636 µM) | 0.05 µg/mL (≈ 0.127 µM) | 0.1 µg/mL (≈ 0.254 µM) | 0.012 µg/mL (≈ 0.0305 µM) | 0.2 µg/mL (≈ 0.508 µM) | 0.39 µg/mL (≈ 0.991 µM) | 0.39 µg/mL (≈ 0.991 µM) | 0.78 µg/mL (≈ 1.98 µM) | 0.012 µg/mL (≈ 0.0305 µM) | 0.012 µg/mL (≈ 0.0305 µM) | 0.2 µg/mL (≈ 0.508 µM) | 0.012 µg/mL (≈ 0.0305 µM) | ≤ 0.006 µg/mL | 0.05 µg/mL (≈ 0.127 µM) | Emergence of micronucleus in polychromatic cells compared with the control group ([32]; oral): showed significant increase in emergence frequency of micronucleus; Emergence of micronucleus (%) ([32]; oral, dose 500 mg/kg): 0.45±0.28 %; Emergence of micronucleus (%) ([32]; oral, dose 1000 mg/kg): 1.45±1.45 %; Emergence of micronucleus (%) ([32]; oral, dose 2000 mg/kg): 2.38±0.85 %
4 | CO[C@@]12[C@H](COC(N)=O)C3=C(C(=O)C(C)=C(N)C3=O)N1C[C@@H]1N[C@@H]12 [MMC, mitomycin C, reference compound] | – | – | – | – | – | – | – | – | – | – | – | – | – | – | – | – | – | – | – | – | Emergence of micronucleus (%) ([32]; dose 1 mg/kg (positive control)): 2.36±1.52 %
5 | COc1c(N2CCC(N)(CN)CC2)c(F)cc2c(=O)c(C(=O)O)cn(C3CC3)c12 [Comp. Ex. 1, 7-(4-amino-4-aminomethylpiperidin-1-yl)-1-cyclopropyl-6-fluoro-1,4-dihydro-8-methoxy-4-oxo-3-quinolinecarboxylic acid, reference compound] | – | – | – | – | 12.5 µg/mL (≈ 30.9 µM) | 1.56 µg/mL (≈ 3.86 µM) | 1.56 µg/mL (≈ 3.86 µM) | 6.25 µg/mL (≈ 15.5 µM) | – | – | 25 µg/mL (≈ 61.8 µM) | 12.5 µg/mL (≈ 30.9 µM) | 25 µg/mL (≈ 61.8 µM) | – | 0.78 µg/mL (≈ 1.93 µM) | – | 6.25 µg/mL (≈ 15.5 µM) | 0.39 µg/mL (≈ 0.964 µM) | 0.1 µg/mL (≈ 0.247 µM) | – | –

— patent EP0677522A1, “8-METHOXYQUINOLONECARBOXYLIC ACID DERIVATIVE” (priority 1992, dated 1994)
